Results published in ChEMBL document CHEMBL5465560, “Selectivity Literature for EUbOPEN Chemogenomic Library” (2024).

Tests used:
[1] = target: Serine/threonine-protein kinase MARK2 (Homo sapiens) (UniProt Q7KZI7); experiment: Selectivity interaction (KinomeScan (DiscoverX)) EUB0000695a MARK2; conditions: at 100 nM
[2] = target: T1, Myotonin-protein kinase (Homo sapiens) (UniProt Q09013); conditions: at 10 µM
T1 sequence (whole entry): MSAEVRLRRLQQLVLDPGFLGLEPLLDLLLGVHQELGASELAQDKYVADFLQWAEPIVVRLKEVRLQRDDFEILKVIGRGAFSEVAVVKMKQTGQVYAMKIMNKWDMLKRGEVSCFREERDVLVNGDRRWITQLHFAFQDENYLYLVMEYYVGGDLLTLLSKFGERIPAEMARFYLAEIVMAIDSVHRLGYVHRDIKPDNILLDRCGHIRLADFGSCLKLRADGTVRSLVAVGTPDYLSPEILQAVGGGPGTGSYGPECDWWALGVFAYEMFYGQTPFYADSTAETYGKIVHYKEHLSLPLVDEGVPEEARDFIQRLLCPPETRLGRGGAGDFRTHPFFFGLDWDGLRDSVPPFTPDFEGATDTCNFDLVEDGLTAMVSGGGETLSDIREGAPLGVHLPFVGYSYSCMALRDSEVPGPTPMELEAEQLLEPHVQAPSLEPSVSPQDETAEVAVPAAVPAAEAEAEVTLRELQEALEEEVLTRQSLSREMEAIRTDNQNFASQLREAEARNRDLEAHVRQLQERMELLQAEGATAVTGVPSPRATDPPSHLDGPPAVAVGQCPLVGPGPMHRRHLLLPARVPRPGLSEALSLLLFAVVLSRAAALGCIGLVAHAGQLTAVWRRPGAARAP

[3] = target: Serine/threonine-protein kinase PAK 6 (Homo sapiens) (UniProt Q9NQU5); conditions: at 10 µM
Serine/threonine-protein kinase PAK 6 (Homo sapiens), sequence (Q9NQU5 whole entry, looked up): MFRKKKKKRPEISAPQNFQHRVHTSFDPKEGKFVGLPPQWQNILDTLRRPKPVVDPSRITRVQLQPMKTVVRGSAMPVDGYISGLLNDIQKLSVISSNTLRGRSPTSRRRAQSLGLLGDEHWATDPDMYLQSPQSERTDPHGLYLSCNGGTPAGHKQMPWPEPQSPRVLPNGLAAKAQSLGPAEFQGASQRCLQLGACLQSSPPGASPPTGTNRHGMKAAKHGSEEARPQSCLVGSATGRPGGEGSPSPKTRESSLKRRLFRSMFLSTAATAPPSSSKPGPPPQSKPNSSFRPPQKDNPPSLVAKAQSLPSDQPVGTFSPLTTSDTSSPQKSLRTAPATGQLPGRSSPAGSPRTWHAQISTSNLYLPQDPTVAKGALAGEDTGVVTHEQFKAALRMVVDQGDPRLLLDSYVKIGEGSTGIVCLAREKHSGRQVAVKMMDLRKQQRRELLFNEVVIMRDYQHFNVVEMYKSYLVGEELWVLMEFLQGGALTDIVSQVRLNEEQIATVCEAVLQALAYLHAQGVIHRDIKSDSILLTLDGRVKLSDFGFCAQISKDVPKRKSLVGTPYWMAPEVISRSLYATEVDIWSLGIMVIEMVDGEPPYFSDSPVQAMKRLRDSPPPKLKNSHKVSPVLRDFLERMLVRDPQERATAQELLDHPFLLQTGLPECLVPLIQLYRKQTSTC

[4] = target: T2, Interleukin-1 receptor-associated kinase 4 (Homo sapiens) (UniProt Q9NWZ3); experiment: Selectivity interaction (ActivX KiNativ screen (ex vivo kinase selectivity in human PBMCs)) EUB0001619a IRAK4; assay type: cell-based; conditions: PBMC, at 1 µM
T2 sequence (whole entry): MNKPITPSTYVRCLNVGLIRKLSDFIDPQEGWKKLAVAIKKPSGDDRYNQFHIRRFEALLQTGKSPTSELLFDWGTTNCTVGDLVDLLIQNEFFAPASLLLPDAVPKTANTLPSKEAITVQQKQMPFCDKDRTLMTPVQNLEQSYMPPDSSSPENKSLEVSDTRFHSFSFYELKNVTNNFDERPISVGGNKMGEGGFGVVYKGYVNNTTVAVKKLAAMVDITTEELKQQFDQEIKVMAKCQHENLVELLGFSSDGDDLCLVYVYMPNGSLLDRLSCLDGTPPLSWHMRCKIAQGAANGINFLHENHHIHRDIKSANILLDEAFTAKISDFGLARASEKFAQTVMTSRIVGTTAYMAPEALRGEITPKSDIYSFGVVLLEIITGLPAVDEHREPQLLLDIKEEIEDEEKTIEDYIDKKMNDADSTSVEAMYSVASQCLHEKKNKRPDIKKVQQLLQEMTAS

[5] = target: Epidermal growth factor receptor (Homo sapiens, UniProt P00533); experiment: Selectivity interaction (Kinase panel (literature)) EUB0001199aCl EGFR; conditions: at 1 µM
Epidermal growth factor receptor, sequence (P00533 whole entry): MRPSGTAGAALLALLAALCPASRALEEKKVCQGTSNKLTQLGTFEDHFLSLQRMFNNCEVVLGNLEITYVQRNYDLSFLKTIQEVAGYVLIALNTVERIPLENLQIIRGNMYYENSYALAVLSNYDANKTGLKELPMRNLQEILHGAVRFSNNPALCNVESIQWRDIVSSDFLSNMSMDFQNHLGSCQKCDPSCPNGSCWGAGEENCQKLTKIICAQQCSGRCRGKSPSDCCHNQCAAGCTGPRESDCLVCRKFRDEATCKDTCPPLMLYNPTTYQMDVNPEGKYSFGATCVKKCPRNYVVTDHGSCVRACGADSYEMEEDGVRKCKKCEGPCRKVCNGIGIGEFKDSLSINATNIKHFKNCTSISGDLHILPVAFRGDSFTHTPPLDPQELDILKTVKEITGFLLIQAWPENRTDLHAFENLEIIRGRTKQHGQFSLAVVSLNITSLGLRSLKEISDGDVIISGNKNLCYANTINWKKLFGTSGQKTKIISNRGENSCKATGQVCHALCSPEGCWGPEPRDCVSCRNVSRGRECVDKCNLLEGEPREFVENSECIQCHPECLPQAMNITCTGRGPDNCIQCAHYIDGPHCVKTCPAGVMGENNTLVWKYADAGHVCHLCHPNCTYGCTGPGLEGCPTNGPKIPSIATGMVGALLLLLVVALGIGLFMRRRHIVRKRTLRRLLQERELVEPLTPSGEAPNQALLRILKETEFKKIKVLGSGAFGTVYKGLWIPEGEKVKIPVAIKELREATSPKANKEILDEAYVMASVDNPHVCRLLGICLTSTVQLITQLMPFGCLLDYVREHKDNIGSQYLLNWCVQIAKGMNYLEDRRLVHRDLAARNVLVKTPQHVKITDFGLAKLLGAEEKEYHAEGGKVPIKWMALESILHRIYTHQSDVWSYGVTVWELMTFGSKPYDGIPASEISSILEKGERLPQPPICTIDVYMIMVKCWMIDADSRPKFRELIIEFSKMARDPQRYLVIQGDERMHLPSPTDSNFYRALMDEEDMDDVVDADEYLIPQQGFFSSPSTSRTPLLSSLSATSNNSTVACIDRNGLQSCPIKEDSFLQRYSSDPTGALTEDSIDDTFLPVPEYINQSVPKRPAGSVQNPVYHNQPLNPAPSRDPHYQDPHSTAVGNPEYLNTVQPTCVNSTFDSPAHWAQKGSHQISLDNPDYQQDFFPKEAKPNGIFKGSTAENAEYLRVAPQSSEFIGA

[6] = target: Fibroblast growth factor receptor 4 (Homo sapiens, UniProt P22455); experiment: Selectivity interaction (SelectScreen profiling (Invitrogen)) EUB0000607a FGFR4; conditions: at 2 µM
Fibroblast growth factor receptor 4, sequence (P22455 22-802 limits assumed): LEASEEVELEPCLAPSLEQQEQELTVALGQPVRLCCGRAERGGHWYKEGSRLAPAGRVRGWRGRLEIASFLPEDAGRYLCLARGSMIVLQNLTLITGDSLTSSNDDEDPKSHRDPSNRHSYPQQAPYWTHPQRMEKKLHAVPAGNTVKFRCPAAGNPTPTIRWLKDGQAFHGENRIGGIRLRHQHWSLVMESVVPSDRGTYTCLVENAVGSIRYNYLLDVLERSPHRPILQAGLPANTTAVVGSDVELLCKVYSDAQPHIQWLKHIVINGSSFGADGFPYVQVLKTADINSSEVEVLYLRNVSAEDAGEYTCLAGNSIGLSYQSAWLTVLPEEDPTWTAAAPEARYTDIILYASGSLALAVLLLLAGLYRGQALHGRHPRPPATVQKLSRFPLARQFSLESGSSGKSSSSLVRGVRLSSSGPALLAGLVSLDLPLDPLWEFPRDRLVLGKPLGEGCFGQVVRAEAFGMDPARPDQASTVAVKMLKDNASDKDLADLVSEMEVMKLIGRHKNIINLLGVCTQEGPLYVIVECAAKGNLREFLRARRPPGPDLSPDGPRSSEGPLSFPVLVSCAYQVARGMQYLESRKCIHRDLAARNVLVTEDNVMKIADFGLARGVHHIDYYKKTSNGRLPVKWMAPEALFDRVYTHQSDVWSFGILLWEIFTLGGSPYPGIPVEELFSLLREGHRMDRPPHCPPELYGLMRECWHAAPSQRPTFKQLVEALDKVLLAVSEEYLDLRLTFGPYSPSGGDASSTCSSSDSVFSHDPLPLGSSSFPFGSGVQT

[7] = target: Serine/threonine-protein kinase Nek4 (Homo sapiens) (UniProt P51957); experiment: Selectivity interaction (KinomeScan (DiscoverX)) EUB0000607a NEK4; conditions: at 10 µM
Serine/threonine-protein kinase Nek4 (Homo sapiens), sequence (P51957 whole entry, looked up): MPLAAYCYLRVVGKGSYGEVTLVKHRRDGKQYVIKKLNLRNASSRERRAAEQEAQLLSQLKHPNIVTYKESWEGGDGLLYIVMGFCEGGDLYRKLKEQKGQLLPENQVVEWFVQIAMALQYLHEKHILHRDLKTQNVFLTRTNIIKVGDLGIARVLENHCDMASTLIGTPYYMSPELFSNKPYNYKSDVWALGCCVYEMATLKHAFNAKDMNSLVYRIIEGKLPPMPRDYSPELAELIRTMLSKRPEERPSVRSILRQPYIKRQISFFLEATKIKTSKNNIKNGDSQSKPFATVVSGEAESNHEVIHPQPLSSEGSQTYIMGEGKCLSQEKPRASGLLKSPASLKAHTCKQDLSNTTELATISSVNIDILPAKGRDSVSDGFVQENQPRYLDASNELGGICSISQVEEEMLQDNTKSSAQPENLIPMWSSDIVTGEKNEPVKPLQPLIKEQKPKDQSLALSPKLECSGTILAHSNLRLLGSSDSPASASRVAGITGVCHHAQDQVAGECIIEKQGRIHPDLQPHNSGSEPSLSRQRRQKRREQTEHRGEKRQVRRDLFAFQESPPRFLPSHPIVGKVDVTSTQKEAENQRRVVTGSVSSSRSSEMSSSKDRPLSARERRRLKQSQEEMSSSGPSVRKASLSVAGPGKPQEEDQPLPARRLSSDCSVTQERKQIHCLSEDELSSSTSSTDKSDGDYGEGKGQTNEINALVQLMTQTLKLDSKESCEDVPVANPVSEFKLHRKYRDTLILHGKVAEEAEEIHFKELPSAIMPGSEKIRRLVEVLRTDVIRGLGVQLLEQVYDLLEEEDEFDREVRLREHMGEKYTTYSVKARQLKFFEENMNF

[8] = target: T3, Ephrin type-B receptor 6 (Homo sapiens) (UniProt O15197); experiment: Selectivity interaction (KinomeScan (DiscoverX)) EUB0000655a EPHB6; conditions: at 10 µM
T3 sequence (whole entry): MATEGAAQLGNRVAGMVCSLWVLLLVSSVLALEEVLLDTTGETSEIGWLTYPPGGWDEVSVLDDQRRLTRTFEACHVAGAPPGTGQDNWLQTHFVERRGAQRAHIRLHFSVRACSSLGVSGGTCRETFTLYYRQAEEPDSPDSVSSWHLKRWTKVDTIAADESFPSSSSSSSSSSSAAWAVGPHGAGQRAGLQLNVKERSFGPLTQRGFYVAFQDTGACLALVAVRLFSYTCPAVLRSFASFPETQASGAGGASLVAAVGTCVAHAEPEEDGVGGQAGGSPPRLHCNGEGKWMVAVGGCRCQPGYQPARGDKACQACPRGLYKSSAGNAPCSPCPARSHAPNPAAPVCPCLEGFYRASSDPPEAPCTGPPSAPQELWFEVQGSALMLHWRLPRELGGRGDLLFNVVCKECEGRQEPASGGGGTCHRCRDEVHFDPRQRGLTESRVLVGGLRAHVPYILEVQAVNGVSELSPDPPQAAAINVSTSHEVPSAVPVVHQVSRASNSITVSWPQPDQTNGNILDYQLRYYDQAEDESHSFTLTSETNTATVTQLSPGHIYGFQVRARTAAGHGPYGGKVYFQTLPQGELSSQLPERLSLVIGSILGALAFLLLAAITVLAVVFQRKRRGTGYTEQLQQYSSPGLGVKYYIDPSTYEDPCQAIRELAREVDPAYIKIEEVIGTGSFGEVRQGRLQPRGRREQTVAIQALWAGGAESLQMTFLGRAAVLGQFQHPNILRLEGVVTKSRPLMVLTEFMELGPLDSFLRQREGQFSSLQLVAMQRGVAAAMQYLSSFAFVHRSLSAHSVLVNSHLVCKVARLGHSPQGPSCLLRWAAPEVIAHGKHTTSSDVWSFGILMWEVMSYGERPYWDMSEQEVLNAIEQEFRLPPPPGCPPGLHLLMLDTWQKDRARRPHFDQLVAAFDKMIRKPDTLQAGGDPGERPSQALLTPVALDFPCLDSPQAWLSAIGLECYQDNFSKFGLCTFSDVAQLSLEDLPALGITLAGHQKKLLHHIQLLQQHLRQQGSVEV

[9] = target: Ribosomal protein S6 kinase beta-1 (Homo sapiens, UniProt P23443); experiment: Selectivity interaction (Ambit KINOMEscan and KiNATiv profiling in Jurkat cells) EUB0000090b RPS6KB1; assay type: cell-based; conditions: at 1 µM
Ribosomal protein S6 kinase beta-1, sequence (P23443 whole entry, looked up): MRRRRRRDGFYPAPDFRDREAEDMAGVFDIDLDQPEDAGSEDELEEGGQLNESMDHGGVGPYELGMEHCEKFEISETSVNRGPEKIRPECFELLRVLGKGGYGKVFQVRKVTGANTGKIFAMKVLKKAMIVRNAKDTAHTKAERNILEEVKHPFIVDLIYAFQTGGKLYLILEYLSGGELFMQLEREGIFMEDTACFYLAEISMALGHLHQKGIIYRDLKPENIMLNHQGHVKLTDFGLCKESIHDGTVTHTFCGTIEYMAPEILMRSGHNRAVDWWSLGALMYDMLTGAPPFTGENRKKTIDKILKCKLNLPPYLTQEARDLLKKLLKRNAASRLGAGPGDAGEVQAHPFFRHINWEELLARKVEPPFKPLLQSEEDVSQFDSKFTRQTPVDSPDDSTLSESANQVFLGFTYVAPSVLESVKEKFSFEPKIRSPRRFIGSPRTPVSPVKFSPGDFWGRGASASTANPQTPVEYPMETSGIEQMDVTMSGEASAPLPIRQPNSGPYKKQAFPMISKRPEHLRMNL

Serine/threonine-protein kinase MARK2 (Homo sapiens), sequence (Q7KZI7 whole entry): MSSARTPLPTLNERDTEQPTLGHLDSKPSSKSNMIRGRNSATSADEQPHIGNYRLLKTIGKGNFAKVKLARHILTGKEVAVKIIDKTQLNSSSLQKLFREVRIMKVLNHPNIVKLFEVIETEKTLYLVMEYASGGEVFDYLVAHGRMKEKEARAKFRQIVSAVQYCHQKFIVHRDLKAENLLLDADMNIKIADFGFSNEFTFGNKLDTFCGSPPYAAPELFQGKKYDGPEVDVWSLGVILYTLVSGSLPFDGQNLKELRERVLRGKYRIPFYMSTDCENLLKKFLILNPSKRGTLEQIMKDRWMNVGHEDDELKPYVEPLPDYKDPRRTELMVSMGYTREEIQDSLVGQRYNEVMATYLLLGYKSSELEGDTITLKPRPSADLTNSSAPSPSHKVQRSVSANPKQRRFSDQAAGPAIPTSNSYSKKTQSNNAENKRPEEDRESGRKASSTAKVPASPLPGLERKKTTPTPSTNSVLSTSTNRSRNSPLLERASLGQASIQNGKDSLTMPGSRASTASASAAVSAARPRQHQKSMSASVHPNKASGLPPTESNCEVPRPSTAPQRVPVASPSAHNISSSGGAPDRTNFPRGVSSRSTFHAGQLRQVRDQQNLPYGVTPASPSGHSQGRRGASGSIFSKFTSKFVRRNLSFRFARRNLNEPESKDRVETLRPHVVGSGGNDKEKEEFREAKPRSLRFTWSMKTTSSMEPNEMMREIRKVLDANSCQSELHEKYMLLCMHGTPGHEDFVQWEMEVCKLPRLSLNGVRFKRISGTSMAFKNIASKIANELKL

## Cc1cc(F)c(C(=O)Nc2cccc(-c3nncn3C(C)C)n2)cc1-n1cnc(C2CC2)c1
[1]
  % of control: 100%

## Cc1cc([C@@H](C)Nc2ccccc2C(=O)O)c2nc(N3CCOCC3)cc(=O)n2c1 [AZD-6482]
[2]
  % of control: 100%
[3]
  % of control: 93%

## N#Cc1cccc(-c2c[nH]c3ncnc(N4CCOCC4)c23)c1
[4]
  % of inhibition: 11%

## CN1Cc2nccc(-c3cn(C)nc3-c3ccc(F)cc3)c2C1=O
[5]
  % of inhibition: 8%

## CNC(=O)Nc1ccc(-c2nc(N3CC4CCC(C3)O4)c3cnn(C4CCC5(CC4)OCCO5)c3n2)cc1
[6]
  % of inhibition: 4%
[7]
  % of control: 82%

## CN(C)CCOc1ccc(-c2nc(-c3ccncc3)c(-c3ccc4c(c3)CC/C4=N\O)[nH]2)cc1
[8]
  % of control: 34%

## CN(C)C/C=C/C(=O)Nc1ccc(C(=O)N2CCCC(Nc3ncc(Cl)c(-c4c[nH]c5ccccc45)n3)C2)cc1 (centres undefined)
[9]
  % of control: 83%
